According to PubChem BioAssay AID2060912 (Molecular Pharmacology Branch, DTP, NCI, 2025):

Tested on: HUVEC/MSC spheroids viability
Experiment: Human HUVEC/MSC cell line growth inhibition [KRAS2];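 for viability, T/C: percent of DMSO vehicle control luminescence so 100% = untreated viability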
Conditions: for IC50: curve of first compound; for viability, T/C: stronger effect = lower value
From the text: Multicellular complex tumor spheroid response to RAS pathway inhibitors in combination with a targeted agents in patient-derived cell lines with oncogenic KRAS variants from multiple cancer types
A high-throughput screen of multi-cell type tumor spheroids was designed to identify active combinations of targeted small molecules and KRAS pathway inhibitors. Complex spheroids include a stromal component modeled by human endothelial cells (HUVEC) and fibroblasts modeled by human mesenchymal stem cells (MSCs). The concentration ranges selected for each drug and investigational agent were based upon clinically achievable concentrations if the clinical Cmax of the agent was known. * [This particular assayID is a followup dataset requested by reviewers of the manuscript. It is a test of the HUVEC and MSC without the tumor cells, and was conducted using different drug plates and a different plate layout.]
Compounds. The drugs and investigational agents: BI-3406 (NSC825286), BAY-293 (NSC824723), batoprotafib (TNO155; NSC825523), sotorasib (AMG 510; NSC818433), MRTX1257 (NSC819558), elimusertib (BAY 1895344; NSC800525), molibresib (GSK525762; NSC774829), temuterkib (LY3214996; NSC803410), venetoclax (NSC766270), alisertib (NSC759677), olaparib (NSC753686), talazoparib (NSC767125), erdafitinib (NSC781556), ipatasertib (NSC767898), cabozantinib (NSC761068), nintedanib (NSC756659), abemaciclib (NSC768073), docetaxel (NSC628503), trametinib (NSC758246), and sapanisertib (NSC764658) were obtained from the National Cancer Institute (NCI) Developmental Therapeutics Program Chemical Repository. The FDA-approved anticancer drug set is available from the Developmental Therapeutics Program. […] The stock solutions were prepared in dimethyl sulfoxide (DMSO, Sigma-Aldrich, St. Louis, MO, cat. D2650) at 800-fold the tested concentration and stored at -70 degrees C prior to their use. All drugs and investigational agents were tested over a range starting from a high concentration at or near the clinical Cmax and decreasing in half-log increments. If the clinical Cmax for an agent had not been determined, the highest concentration tested was 10 microM.
Cell Culture. All cells were maintained in an incubator at 37 degrees C and 5% CO2 with 95% humidity. The PDC lines were cultured according to standard operating procedures established by the NCI PDMR (https://pdmr.cancer.gov/sops/default.htm). Briefly, all PDCs were thawed and cultured in Matrigel-coated flasks prepared with a working solution of 1X Ham's F-12 nutrient mix, without supplementation (Invitrogen, Waltham, MA, cat. 11765054), 100 U/mL penicillin-streptomycin (Invitrogen, cat. 15140122), and 2.5% Matrigel (Corning Inc., Corning, NY, cat. 354248) for the first three passages. All PDCs were cultured in complete DMEM/F-12 media containing advanced DMEM/F-12 (Invitrogen, cat. 12634028), 4.9% defined fetal bovine serum, heat inactivated (HyClone Laboratories Inc., Logan, UT, cat. SH30070.03HI), 389 ng/mL hydrocortisone (Sigma-Aldrich, cat. H4001), 9.7 ng/mL human EGF recombinant protein (Invitrogen, cat. PHG0313), 23.4 microg/mL adenine (Sigma-Aldrich, cat. A2786), 97.3 U/mL penicillin-streptomycin (Invitrogen, cat. 15140122), 1.9 mM L-glutamine (Invitrogen, cat. 25030081), and 9.7 microM Y-27632 dihydrochloride (Tocris Bioscience, Bristol, United Kingdom, cat. 1254). The PDCs were cultured in complete DMEM/F12 media without 9.7 microM Y-27632 dihydrochloride for at least two passages prior to the screen. The established cell line HOP-62 was cultured in RPMI 1640 medium, HEPES (Invitrogen, cat. 22400105) with 10% defined fetal bovine serum (HyClone Laboratories Inc., cat. SH30070.03) and 2 mM L-glutamine (Invitrogen, cat. 25030081). The pooled donor HUVEC were cultured in endothelial cell growth medium 2 (PromoCell, Heidelberg, Germany, cat. C-22011) and the hMSC were cultured in mesenchymal stem cell growth medium 2 (PromoCell, cat. C-28009). […]

## CC(=O)Nc1cccc(-n2c(=O)n(C3CC3)c(=O)c3c(Nc4ccc(I)cc4F)n(C)c(=O)c(C)c32)c1 + C=CC(=O)N1CCN(c2nc(=O)n(-c3c(C)ccnc3C(C)C)c3nc(-c4c(O)cccc4F)c(F)cc23)C(C)C1
Second compound 0.0316 µM
  IC50: 0.0161 µM
Second compound 0.1 µM
  IC50: 0.0178 µM
Second compound 0.316 µM
  IC50: 0.0168 µM
Second compound 1 µM
  IC50: 0.0179 µM
Second compound 3.16 µM
  IC50: 0.0163 µM
Second compound 10 µM
  IC50: 0.0137 µM
Second compound 0.0316 µM, first compound 94.9 pM
  viability, T/C: 126%
Second compound 0.0316 µM, first compound 0.0003 µM
  viability, T/C: 140%
Second compound 0.0316 µM, first compound 0.000949 µM
  viability, T/C: 163%
Second compound 0.0316 µM, first compound 0.003 µM
  viability, T/C: 114%
Second compound 0.0316 µM, first compound 0.00949 µM
  viability, T/C: 77.1%
Second compound 0.0316 µM, first compound 0.03 µM
  viability, T/C: 20.7%
Second compound 0.1 µM, first compound 94.9 pM
  viability, T/C: 92.7%
Second compound 0.1 µM, first compound 0.0003 µM
  viability, T/C: 130%
Second compound 0.1 µM, first compound 0.000949 µM
  viability, T/C: 141%
Second compound 0.1 µM, first compound 0.003 µM
  viability, T/C: 113%
Second compound 0.1 µM, first compound 0.00949 µM
  viability, T/C: 88.3%
Second compound 0.1 µM, first compound 0.03 µM
  viability, T/C: 18.6%
Second compound 0.316 µM, first compound 94.9 pM
  viability, T/C: 126%
Second compound 0.316 µM, first compound 0.0003 µM
  viability, T/C: 157%
Second compound 0.316 µM, first compound 0.000949 µM
  viability, T/C: 151%
Second compound 0.316 µM, first compound 0.003 µM
  viability, T/C: 119%
Second compound 0.316 µM, first compound 0.00949 µM
  viability, T/C: 80.3%
Second compound 0.316 µM, first compound 0.03 µM
  viability, T/C: 20.6%
Second compound 1 µM, first compound 94.9 pM
  viability, T/C: 148%
Second compound 1 µM, first compound 0.0003 µM
  viability, T/C: 133%
Second compound 1 µM, first compound 0.000949 µM
  viability, T/C: 148%
Second compound 1 µM, first compound 0.003 µM
  viability, T/C: 112%
Second compound 1 µM, first compound 0.00949 µM
  viability, T/C: 89.8%
Second compound 1 µM, first compound 0.03 µM
  viability, T/C: 19.7%
Second compound 3.16 µM, first compound 94.9 pM
  viability, T/C: 144%
Second compound 3.16 µM, first compound 0.0003 µM
  viability, T/C: 157%
Second compound 3.16 µM, first compound 0.000949 µM
  viability, T/C: 170%
Second compound 3.16 µM, first compound 0.003 µM
  viability, T/C: 120%
Second compound 3.16 µM, first compound 0.00949 µM
  viability, T/C: 82%
Second compound 3.16 µM, first compound 0.03 µM
  viability, T/C: 16.8%
Second compound 10 µM, first compound 94.9 pM
  viability, T/C: 134%
Second compound 10 µM, first compound 0.0003 µM
  viability, T/C: 157%
Second compound 10 µM, first compound 0.000949 µM
  viability, T/C: 164%
Second compound 10 µM, first compound 0.003 µM
  viability, T/C: 130%
Second compound 10 µM, first compound 0.00949 µM
  viability, T/C: 70.4%
Second compound 10 µM, first compound 0.03 µM
  viability, T/C: 8.78%
